Results taken from article PMC7926352, “Synthesis, Characterization and In Vitro Evaluation of Novel 5-Ene-thiazolo[3,2-b][1,2,4]triazole-6(5H)-ones as Possible Anticancer Agents” (Molecules, 2021).
Read-outs that look alike come from different tables or passages of the source.

Assays:
[1] = tested on: Ovarian Cancer cell lines; conditions: for GI50 / CC50: Homo sapiens
A549/ATCC = type: cell-based; conditions: NSCLC
NCI-H226 = type: cell-based; conditions: NCI-H226, NSCLC
Colon cancer cell lines = conditions: for GI50 / CC50: Homo sapiens
CNS Cancer cell lines = conditions: for GI50 / CC50: Homo sapiens
[2] = read-out: GI50, values range inside panel
[3] = read-out: LC50, values range inside panel

O=C(COc1ccc(Cl)cc1/C=c1\sc2ncnn2c1=O)Nc1ccc(Cl)cc1 [Compound 2h, (Z)-2-(4-Chloro-2-((6-oxothiazolo[3,2-b][1,2,4]triazol-5(6H)-ylidene)methyl)phenoxy)-N-(4-chlorophenyl)acetamide]
GI50 (SF-539; Homo sapiens, SF-539): 1.77 µM | CC50 (SF-539; Homo sapiens, SF-539, read-out: LC50): 12.6 µM | TGI (SF-539; SF-539, CNS Cancer): 4.46 µM | TGI (DU-145; DU-145, Prostate Cancer): 4.46 µM | GI50 (DU-145; Homo sapiens, DU-145): 1.54 µM | CC50 (DU-145; Homo sapiens, DU-145, read-out: LC50): 15.8 µM | GI50 (UACC-62; Homo sapiens, UACC-62): 2.69 µM | CC50 (UACC-62; Homo sapiens, UACC-62, read-out: LC50): 38 µM | TGI (UACC-62; UACC-62, Melanoma): 14.79 µM | GI50 ([1]; read-out: GI50, panel MG_MID): 8.05 µM | GI50 [1, 2]: 2.11 to 15.5 µM | CC50 ([1]; read-out: LC50, panel MG_MID): 52.1 µM | CC50 [1, 3]: 19.5 to 97.7 µM | TGI, panel MG_MID ([1]; Ovarian Cancer subpanel): 20.34 µM | TGI, values range inside panel ([1]; Ovarian Cancer subpanel): 5.62 to 30.90 µM | GI50 (A549/ATCC; Homo sapiens): 15.5 µM | CC50 (A549/ATCC; Homo sapiens, read-out: LC50 (the source's name)): 60.2 µM | TGI (A549/ATCC): 30.90 µM | TGI (HCT-116; HCT-116, Colon cancer): 20.89 µM | GI50 (HCT-116; Homo sapiens, HCT-116): 7.58 µM | CC50 (HCT-116; Homo sapiens, HCT-116, read-out: LC50): 45.7 µM | TGI (HOP-92; HOP-92, NSCLC): 11.74 µM | GI50 (HOP-92; Homo sapiens, HOP-92): 2.29 µM | CC50 (HOP-92; Homo sapiens, HOP-92, read-out: LC50): 34.7 µM | TGI (HS 578T; HS 578T, Breast Cancer): 5.24 µM | GI50 (HS 578T; Homo sapiens, Hs-578T): 2.04 µM | CC50 (HS 578T; Homo sapiens, Hs-578T, read-out: LC50): 33.9 µM | GI50 (NCI-H226; Homo sapiens): 3.09 µM | LC50 (50% lethal concentration) (NCI-H226; Homo sapiens): 44.7 µM | TGI (NCI-H226): 17.37 µM | GI50 (EKVX; Homo sapiens): 2.51 µM | CC50 (EKVX; Homo sapiens, read-out: LC50): 31.6 µM | TGI (EKVX; NSCLC): 9.99 µM | GI50 (UACC-257; Homo sapiens, UACC-257): 3.38 µM | CC50 (UACC-257; Homo sapiens, UACC-257, read-out: LC50): 38.9 µM | TGI (UACC-257; UACC-257, Melanoma): 15.13 µM | GI50 (SNB-75; Homo sapiens, SNB-75): 3.38 µM | CC50 (SNB-75; Homo sapiens, SNB-75, read-out: LC50): 87.1 µM | TGI (SNB-75; SNB-75, CNS Cancer): 15.48 µM | TGI, panel MG_MID (Breast Cancer cell lines; Breast Cancer subpanel): 15.61 µM | TGI, values range inside panel (Breast Cancer cell lines; Breast Cancer subpanel): 4.07 to 41.68 µM | GI50 (Breast Cancer cell lines; Homo sapiens, read-out: GI50, panel MG_MID): 4.48 µM | CC50 (Breast Cancer cell lines; Homo sapiens, read-out: LC50, panel MG_MID): 46.1 µM | GI50 (Breast Cancer cell lines; read-out: GI50, values range inside panel, Breast Cancer subpanel): 0.01 to 15.5 µM | GI50 (KM12; Homo sapiens, KM12): 2.45 µM | CC50 (KM12; Homo sapiens, KM12, read-out: LC50): 33.1 µM | TGI (KM12; KM12, Colon cancer): 10.96 µM | TGI (HL-60 (TB); HL-60 (TB), Leukemia): 9.54 µM | GI50 (HL-60 (TB); Homo sapiens, HL-60): 2.69 µM | CC50 (HL-60 (TB); Homo sapiens, HL-60, read-out: LC50): 37.1 µM | GI50 (SK-MEL-5; Homo sapiens, SK-MEL-5): 3.23 µM | CC50 (SK-MEL-5; Homo sapiens, SK-MEL-5, read-out: LC50): 38 µM | TGI (SK-MEL-5; SK-MEL-5, Melanoma): 14.79 µM | GI50 (MCF7; Homo sapiens, MCF7): 0.79 µM | CC50 (MCF7; Homo sapiens, MCF7, read-out: LC50): 19.5 µM | TGI (MCF7; MCF7, Breast Cancer): 4.07 µM | GI50 (LOX IMVI; Homo sapiens): 2.63 µM | CC50 (LOX IMVI; Homo sapiens, read-out: LC50): 33.1 µM | TGI (LOX IMVI; Melanoma): 11.22 µM | TGI (CAKI-1; CAKI-1, Renal Cancer): 8.12 µM | GI50 (CAKI-1; Homo sapiens, CAKI-1): 2.39 µM | CC50 (CAKI-1; Homo sapiens, CAKI-1, read-out: LC50): 28.8 µM | GI50 (MALME-3M; Homo sapiens, Malme-3M): 7.94 µM | CC50 (MALME-3M; Homo sapiens, Malme-3M, read-out: LC50): 45.7 µM | TGI (MALME-3M; MALME-3M, Melanoma): 20.89 µM | GI50 (PC-3; Homo sapiens, PC-3): 3.8 µM | CC50 (PC-3; Homo sapiens, PC-3, read-out: LC50): 45.7 µM | TGI (PC-3; PC-3, Prostate Cancer): 16.21 µM | GI50 (SF-268; Homo sapiens, SF-268): 2.39 µM | CC50 (SF-268; Homo sapiens, SF-268, read-out: LC50): 37.1 µM | TGI (SF-268; SF-268, CNS Cancer): 10.47 µM | TGI, panel MG_MID (Colon cancer cell lines; Colon cancer subpanel): 17.39 µM | TGI, values range inside panel (Colon cancer cell lines; Colon cancer subpanel): 10.96 to 21.37 µM | GI50 (Colon cancer cell lines; read-out: GI50, panel MG_MID): 6.13 µM | GI50 (Colon cancer cell lines; [2]): 2.45 to 9.33 µM | CC50 (Colon cancer cell lines; read-out: LC50, panel MG_MID): 41.4 µM | CC50 (Colon cancer cell lines; [3]): 33.1 to 45.7 µM | GI50 (SN12C; Homo sapiens): 1.62 µM | CC50 (SN12C; Homo sapiens, read-out: LC50): 41.7 µM | TGI (SN12C; Renal Cancer): 12.88 µM | GI50 (NCI-H460; Homo sapiens, NCI-H460): 11.5 µM | CC50 (NCI-H460; Homo sapiens, NCI-H460, read-out: LC50): 49 µM | TGI (NCI-H460; NCI-H460, NSCLC): 23.44 µM | TGI, panel MG_MID (CNS Cancer cell lines; CNS Cancer subpanel): 10.76 µM | TGI, values range inside panel (CNS Cancer cell lines; CNS Cancer subpanel): 4.46 to 15.48 µM | GI50 (CNS Cancer cell lines; read-out: GI50, panel MG_MID): 2.87 µM | GI50 (CNS Cancer cell lines; [2]): 1.77 to 4.07 µM | CC50 (CNS Cancer cell lines; read-out: LC50, panel MG_MID): 38.6 µM | CC50 (CNS Cancer cell lines; [3]): 12.6 to 87.1 µM | GI50 (SK-MEL-2; Homo sapiens, SK-MEL-2): 3.98 µM | CC50 (SK-MEL-2; Homo sapiens, SK-MEL-2, read-out: LC50): 38.9 µM | TGI (SK-MEL-2; SK-MEL-2, Melanoma): 13.80 µM | GI50 (M14; Homo sapiens, M14): 8.31 µM | CC50 (M14; Homo sapiens, M14, read-out: LC50): 45.7 µM | TGI (M14; M14, Melanoma): 20.89 µM | TGI (HCC-2998; HCC-2998, Colon cancer): 18.62 µM | GI50 (HCC-2998; Homo sapiens, HCC 2998): 7.07 µM | CC50 (HCC-2998; Homo sapiens, HCC 2998, read-out: LC50): 43.6 µM | GI50 (K-562; Homo sapiens, K562): 2.51 µM | CC50 (K-562; Homo sapiens, K562, read-out: LC50): 49 µM | TGI (K-562; K-562, Leukemia): 14.45 µM
